Results reported in ChEMBL document CHEMBL5316328, “Discovery of AXL Degraders with Improved Potencies in Triple-Negative Breast Cancer (TNBC) Cells” (J Med Chem, 2023).

What follows are compounds tested on MDA-MB-436 (assay: Antiproliferative activity against human MDA-MB-436 cells expressing AXL assessed as inhibition of cell growth incubated for 72 hrs by CCK8 assay). Conditions: MDA-MB-436, 72 h.
Format: functional, cell-based
`CCc1ccc2c(c1)c(=O)c(C(=O)Nc1ccc(Oc3ncnc4cc(OCCCCCC(=O)Nc5ccc6c(c5)CN(C5CCC(=O)N(C)C5=O)C6=O)c(OC)cc34)c(F)c1)c(C)n2C` (centres undefined) showed an IC50 greater than 5 µM.

Each compound was assayed against Protein cereblon/Tyrosine-protein kinase receptor UFO (Homo sapiens, UniProt P30530+Q96SW2) (assay: PROTAC activity at CRBN/AXL in human MDA-MB-231 cells assessed as induction of AXL degradation incubated for 24 hrs by immunoblot analysis). Conditions: not given.
Protein cereblon/Tyrosine-protein kinase receptor UFO, sequence (P30530 whole entry): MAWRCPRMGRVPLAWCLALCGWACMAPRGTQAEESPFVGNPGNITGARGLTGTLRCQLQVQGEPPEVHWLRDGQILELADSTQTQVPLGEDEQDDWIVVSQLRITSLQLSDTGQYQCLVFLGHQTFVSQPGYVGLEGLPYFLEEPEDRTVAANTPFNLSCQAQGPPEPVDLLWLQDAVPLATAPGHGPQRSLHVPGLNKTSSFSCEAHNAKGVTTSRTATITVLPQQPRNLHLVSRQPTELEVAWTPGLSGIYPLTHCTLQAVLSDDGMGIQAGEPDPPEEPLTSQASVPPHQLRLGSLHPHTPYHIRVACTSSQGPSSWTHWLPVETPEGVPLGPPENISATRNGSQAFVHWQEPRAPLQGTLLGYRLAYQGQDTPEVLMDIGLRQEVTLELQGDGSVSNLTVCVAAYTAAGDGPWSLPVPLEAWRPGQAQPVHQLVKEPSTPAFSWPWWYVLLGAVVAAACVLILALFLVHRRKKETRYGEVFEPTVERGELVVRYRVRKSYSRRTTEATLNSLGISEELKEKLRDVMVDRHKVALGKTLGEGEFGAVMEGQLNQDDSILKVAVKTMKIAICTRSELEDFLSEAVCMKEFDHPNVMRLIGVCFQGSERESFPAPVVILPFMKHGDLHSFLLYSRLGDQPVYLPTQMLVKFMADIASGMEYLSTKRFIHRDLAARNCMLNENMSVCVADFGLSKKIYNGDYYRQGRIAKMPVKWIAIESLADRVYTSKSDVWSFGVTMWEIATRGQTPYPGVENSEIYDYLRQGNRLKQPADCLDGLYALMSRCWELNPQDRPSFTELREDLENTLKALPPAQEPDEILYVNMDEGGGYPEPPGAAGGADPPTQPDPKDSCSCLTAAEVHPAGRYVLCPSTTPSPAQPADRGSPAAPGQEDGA
Protein cereblon/Tyrosine-protein kinase receptor UFO, sequence (Q96SW2 whole entry): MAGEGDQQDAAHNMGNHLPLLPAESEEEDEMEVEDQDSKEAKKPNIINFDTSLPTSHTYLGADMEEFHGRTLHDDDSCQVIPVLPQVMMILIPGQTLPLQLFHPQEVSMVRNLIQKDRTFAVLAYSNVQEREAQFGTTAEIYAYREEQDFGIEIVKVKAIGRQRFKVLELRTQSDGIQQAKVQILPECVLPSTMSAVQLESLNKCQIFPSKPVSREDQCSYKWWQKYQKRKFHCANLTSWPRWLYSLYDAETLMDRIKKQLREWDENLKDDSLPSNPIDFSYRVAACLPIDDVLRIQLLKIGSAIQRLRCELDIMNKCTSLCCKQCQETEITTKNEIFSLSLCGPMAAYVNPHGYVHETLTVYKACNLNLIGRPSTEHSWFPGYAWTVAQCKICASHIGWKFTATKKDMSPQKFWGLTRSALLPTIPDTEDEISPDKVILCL
Format: cell-based
`CCc1ccc2c(c1)c(=O)c(C(=O)Nc1ccc(Oc3ncnc4cc(OCCCCCCCCCC(=O)Nc5cccc6c5C(=O)N(C5CCC(=O)NC5=O)C6=O)c(OC)cc34)c(F)c1)c(C)n2C` (centres undefined) gave an EC50 greater than 10 µM. With `CCc1ccc2c(c1)c(=O)c(C(=O)Nc1ccc(Oc3ncnc4cc(OCCCCCC(=O)Nc5cccc6c5CN(C5CCC(=O)NC5=O)C6=O)c(OC)cc34)c(F)c1)c(C)n2C` (centres undefined) the EC50 was greater than 10 µM. With `CCc1ccc2c(c1)c(=O)c(C(=O)Nc1ccc(Oc3ncnc4cc(OCCCCCCCC(=O)Nc5ccc6c(c5)C(=O)N(C5CCC(=O)NC5=O)C6=O)c(OC)cc34)c(F)c1)c(C)n2C` (centres undefined) the EC50 was 0.108 µM. `CCc1ccc2c(c1)c(=O)c(C(=O)Nc1ccc(Oc3ncnc4cc(OCCCCCCCCCC(=O)Nc5ccc6c(c5)C(=O)N(C5CCC(=O)NC5=O)C6=O)c(OC)cc34)c(F)c1)c(C)n2C` (centres undefined) gave an EC50 greater than 10 µM. Compound `CCc1ccc2c(c1)c(=O)c(C(=O)Nc1ccc(Oc3ncnc4cc(OCCCCC(=O)Nc5ccc6c(c5)C(=O)N(C5CCC(=O)NC5=O)C6=O)c(OC)cc34)c(F)c1)c(C)n2C` (centres undefined) has an EC50 greater than 10 µM. `CCc1ccc2c(c1)c(=O)c(C(=O)Nc1ccc(Oc3ncnc4cc(OCCCCCCCCCCCC(=O)Nc5ccc6c(c5)C(=O)N(C5CCC(=O)NC5=O)C6=O)c(OC)cc34)c(F)c1)c(C)n2C` (centres undefined) showed an EC50 greater than 10 µM. `CCc1ccc2c(c1)c(=O)c(C(=O)Nc1ccc(Oc3ncnc4cc(OCCCCCC(=O)Nc5cccc6c5C(=O)N(C5CCC(=O)NC5=O)C6=O)c(OC)cc34)c(F)c1)c(C)n2C` (centres undefined) showed an EC50 greater than 10 µM. Compound `CCc1ccc2c(c1)c(=O)c(C(=O)Nc1ccc(Oc3ncnc4cc(OCCCCCCCC(=O)Nc5cccc6c5C(=O)N(C5CCC(=O)NC5=O)C6=O)c(OC)cc34)c(F)c1)c(C)n2C` (centres undefined) has an EC50 greater than 10 µM. `CCc1ccc2c(c1)c(=O)c(C(=O)Nc1ccc(Oc3ncnc4cc(OCCCCCCCCCCCC(=O)Nc5cccc6c5C(=O)N(C5CCC(=O)NC5=O)C6=O)c(OC)cc34)c(F)c1)c(C)n2C` (centres undefined) gave an EC50 greater than 10 µM. For `CCc1ccc2c(c1)c(=O)c(C(=O)Nc1ccc(Oc3ncnc4cc(OCC(=O)Nc5ccc6c(c5)C(=O)N(C5CCC(=O)NC5=O)C6=O)c(OC)cc34)c(F)c1)c(C)n2C` (centres undefined), the EC50 was greater than 10 µM. Compound `CCc1ccc2c(c1)c(=O)c(C(=O)Nc1ccc(Oc3ncnc4cc(OCC(=O)Nc5cccc6c5C(=O)N(C5CCC(=O)NC5=O)C6=O)c(OC)cc34)c(F)c1)c(C)n2C` (centres undefined) has an EC50 greater than 10 µM. With `CCc1ccc2c(c1)c(=O)c(C(=O)Nc1ccc(Oc3ncnc4cc(OCCCCC(=O)Nc5cccc6c5C(=O)N(C5CCC(=O)NC5=O)C6=O)c(OC)cc34)c(F)c1)c(C)n2C` (centres undefined) the EC50 was greater than 10 µM. `CCc1ccc2c(c1)c(=O)c(C(=O)Nc1ccc(Oc3ncnc4cc(OCCCCCC(=O)Nc5ccc6c(c5)C(=O)N(C5CCC(=O)NC5=O)C6)c(OC)cc34)c(F)c1)c(C)n2C` (centres undefined) gave an EC50 greater than 10 µM. `CCc1ccc2c(c1)c(=O)c(C(=O)Nc1ccc(Oc3ncnc4cc(OCCCCCC(=O)Nc5ccc6c(c5)C(=O)N(C5CCC(=O)NC5=O)C6=O)c(OC)cc34)c(F)c1)c(C)n2C` (centres undefined) was tested, and the EC50 was 0.04 µM. `CCc1ccc2c(c1)c(=O)c(C(=O)Nc1ccc(Oc3ncnc4cc(OCCCCCC(=O)Nc5cccc6c5C(=O)N(C5CCC(=O)NC5=O)C6)c(OC)cc34)c(F)c1)c(C)n2C` (centres undefined) showed an EC50 greater than 10 µM.

The compounds below were run against von Hippel-Lindau disease tumor suppressor/Tyrosine-protein kinase receptor UFO (Homo sapiens, UniProt P30530+P40337) (assay: PROTAC activity at VHL/AXL in human MDA-MB-231 cells assessed as induction of AXL degradation incubated for 24 hrs by immunoblot analysis). Conditions: not given.
von Hippel-Lindau disease tumor suppressor/Tyrosine-protein kinase receptor UFO, sequence (P30530 whole entry): as the sequence (P30530 whole entry) above
von Hippel-Lindau disease tumor suppressor/Tyrosine-protein kinase receptor UFO, sequence (P40337 whole entry): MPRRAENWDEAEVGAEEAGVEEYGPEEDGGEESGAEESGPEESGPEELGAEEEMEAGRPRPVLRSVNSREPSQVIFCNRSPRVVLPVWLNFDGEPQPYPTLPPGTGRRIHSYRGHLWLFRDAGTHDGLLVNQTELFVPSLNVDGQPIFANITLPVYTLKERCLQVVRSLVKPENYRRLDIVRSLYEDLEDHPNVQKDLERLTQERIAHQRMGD
Format: cell-based
Compound `CCc1ccc2c(c1)c(=O)c(C(=O)Nc1ccc(Oc3ncnc4cc(OCCCCCCCC(=O)N[C@H](C(=O)N5C[C@H](O)C[C@H]5C(=O)NCc5ccc(-c6scnc6C)cc5)C(C)(C)C)c(OC)cc34)c(F)c1)c(C)n2C` has an EC50 greater than 10 µM. `CCc1ccc2c(c1)c(=O)c(C(=O)Nc1ccc(Oc3ncnc4cc(OCCCCCCCCCCCC(=O)N[C@H](C(=O)N5C[C@H](O)C[C@H]5C(=O)NCc5ccc(-c6scnc6C)cc5)C(C)(C)C)c(OC)cc34)c(F)c1)c(C)n2C` showed an EC50 greater than 10 µM. Work on `CCc1ccc2c(c1)c(=O)c(C(=O)Nc1ccc(Oc3ncnc4cc(OCC(=O)N[C@H](C(=O)N5C[C@H](O)C[C@H]5C(=O)NCc5ccc(-c6scnc6C)cc5)C(C)(C)C)c(OC)cc34)c(F)c1)c(C)n2C` yielded an EC50 greater than 10 µM. Work on `CCc1ccc2c(c1)c(=O)c(C(=O)Nc1ccc(Oc3ncnc4cc(OCCCCCCCCCC(=O)N[C@H](C(=O)N5C[C@H](O)C[C@H]5C(=O)NCc5ccc(-c6scnc6C)cc5)C(C)(C)C)c(OC)cc34)c(F)c1)c(C)n2C` yielded an EC50 greater than 10 µM. In the case of `CCc1ccc2c(c1)c(=O)c(C(=O)Nc1ccc(Oc3ncnc4cc(OCCCCCC(=O)N[C@H](C(=O)N5C[C@H](O)C[C@H]5C(=O)NCc5ccc(-c6scnc6C)cc5)C(C)(C)C)c(OC)cc34)c(F)c1)c(C)n2C`, the EC50 is reported as greater than 10 µM. Compound `CCc1ccc2c(c1)c(=O)c(C(=O)Nc1ccc(Oc3ncnc4cc(OCCCC(=O)N[C@H](C(=O)N5C[C@H](O)C[C@H]5C(=O)NCc5ccc(-c6scnc6C)cc5)C(C)(C)C)c(OC)cc34)c(F)c1)c(C)n2C` has an EC50 greater than 10 µM.

What follows are compounds tested on MDA-MB-453 (assay: Antiproliferative activity against human MDA-MB-453 cells assessed as inhibition of cell growth incubated for 72 hrs by CCK8 assay). Conditions: MDA-MB-453, 72 h.
Format: functional, cell-based
`CCc1ccc2c(c1)c(=O)c(C(=O)Nc1ccc(Oc3ncnc4cc(OCCCCCC(=O)Nc5ccc6c(c5)CN(C5CCC(=O)N(C)C5=O)C6=O)c(OC)cc34)c(F)c1)c(C)n2C` (centres undefined) showed an IC50 greater than 5 µM.

These compounds were tested on MDA-MB-231 (assay: Antiproliferative activity against human MDA-MB-231 cells expressing AXL assessed as inhibition of cell growth incubated for 72 hrs by CCK8 assay). Conditions: MDA-MB-231, 72 h.
Format: functional, cell-based
`CCc1ccc2c(c1)c(=O)c(C(=O)Nc1ccc(Oc3ncnc4cc(OCCCCCC(=O)Nc5ccc6c(c5)CN(C5CCC(=O)N(C)C5=O)C6=O)c(OC)cc34)c(F)c1)c(C)n2C` (centres undefined) showed an IC50 greater than 5 µM.
